In EP1825852A1, “ST104P as an anti-angiogenic agent” (Sagittarius Life Science Corp., priority 2006, dated 2007):
Read-outs that look alike come from different tables or passages of the source.

How the values were obtained:
EA.hy926 [1] = assay: Cytotoxicity: cell proliferation assay (crystal violet stain); format: cell-based, Human
Experimental: (§1) Fig.1. The cytotoxicity of ST104P in different types of cells. […] After treatment of ST104P at 10-500 µg/ml in DMEM medium containing 10% FCS for 24 h, the morphologies of BAEC and 3T3 cells were monitored under phase contrast microscopy. The pictures were taken at 400× magnification. (B). The dose-dependent effect of ST104P on the proliferation of different cells. After treatment with ST104P at 10-500 µg/ml or PBS for 48 h, the viability of various cells was determined by crystal violet method in an ELISA reader. Each data represent mean ± SD of quadruplicate experiments. Asterisks indicated statistic significance versus control (P<0.001).
(§2) Human umbilical vein endothelial cells (HUVEC; passage 3 to 6) were isolated from umbilical veins and cultured in RPMI 1640 medium (Life Technologies, Gaithersburg, MD) containing 15% fetal calf serum, 20 U/ml porcine heparin (Sigma Chemical Co), and 100 µg/ml endothelial cell growth supplement (Calbiochem; La Jolla, CA). […]
(§3) The effect of ST104P on the viability of various cells was determined using crystal violet stain assay. […] The dye in viable cells was measured by reading the optical density at 590 nm using a scanning multi-well spectrophotometer (ELISA reader; Dynatech Laboratories, Chantilly, VA).

[2] = in vivo
BAEC [3] = assay: Cytotoxicity: cell proliferation assay (crystal violet stain) and morphology; format: cell-based, Bovine
Experimental: as §1
Human umbilical vein endothelial cells (HUVEC; passage 3 to 6) were isolated from umbilical veins and cultured in RPMI 1640 medium (Life Technologies, Gaithersburg, MD) containing 15% fetal calf serum, 20 U/ml porcine heparin (Sigma Chemical Co), and 100 µg/ml endothelial cell growth supplement (Calbiochem; La Jolla, CA). Bovine aortic endothelial (BAEC) cells, 3T3 cells, and LL2 Lewis lung carcinoma cells were cultured with DMEM (Dulbecco's Modified Eagle Medium; Gibco BRL, Rockville, MD) containing 10% fetal calf serum (PAA, Austria), 2 mM glutamine, 100 U/ml penicillin and 100 µg/ml streptomycin (Gibco BRL, Rockville, MD) in 5% CO2 at 37 °C. Human vascular endothelial EA.hy926 cells were cultured in DMEM (Dulbecco's Modified Eagle Medium; Gibco BRL, Rockville, MD) containing 10% fetal calf serum (PAA, Austria), 100 µM sodium hypoxanthine, 0.4 µM aminopterin, 16 µM thymidine (HAT; Gibco BRL, Rockville, MD), 2 mM glutamine, 100 U/ml penicillin and 100 µg/ml streptomycin (Gibco BRL, Rockville, MD) in 5% CO2 at 37 °C.
as §3, with “assay. Briefly, cells cultured in 96-well plate (2-4 x10^3 cells/well) were treated with various doses of ST104P for 48 h.” for “assay.”

Lewis lung carcinoma = format: in vivo, C57BL/6J mice
Experimental: Fig. 6. Injection of ST104P suppressed tumor growth of Lewis lung carcinoma in mice. The subcutaneous dorsa of mice were implanted with Lewis lung carcinomas. The tumor sizes in mice during treatment with ST104P or control were recorded. […] Each point represents mean ± SEM for ten mice.
Fig. 7. Injection of ST104P prolonged the survival of tumor-bearing mice. The subcutaneous dorsa of mice were implanted with Lewis lung carcinomas. The tumor sizes in mice during treatment with ST104P or control were recorded. […] Each point represents mean ± SEM for ten mice. The overall survival rates of ten mice in PBS- or ST104P-treated group were recorded.
Animal study was carried out in the animal facility of Kaohsiung Veterans General Hospital in accordance with institutional guidelines. Male C57BL/6J mice (6- to 8-week-old; Animal Center of National Cheng Kung University, Taiwan) were used. Mice were acclimated and caged in groups of four or less. All mice were fed with a diet of animal chow and water ad libitum. Animals were anesthetized in a methoxyflurane chamber prior to all procedures and were observed until fully recovered. Animals were sacrificed by a lethal dose of methoxyflurane.
C57BL/6J mice were implanted with Lewis lung carcinomas cells using the techniques described previously (O'Reilly et al., Cell 88, 277-285,1997). Briefly, the LL2 Lewis lung carcinoma cells were resuspended in PBS at the concentration of 2.5 x 10^6 cells per ml and injected into C57B16/J mice (n = 20) with 0.1 ml of the cell suspension to induce tumor. Tumors were measured with a dial-caliper and volumes were determined using the formula width^2 × length × 0.52. After tumor volumes reached 100-200 mm^3, mice were randomized into two groups receiving periodic injection of ST104P (n=10) or saline (n = 10) by subcutaneous injection at a site near tumor. The measurement of tumor size was terminated when mice began to die. In addition, the survival rate of mice in different groups was recorded and analyzed by Kaplan-Mier Survival analysis.

CAM = assay: Chorioallantoic membrane (CAM) assay
Experimental: The CAMs in 8-day old chicken embryos were incubated with saline or ST104P (50 or 200 µg in saline) for 48 h. The angiogenesis profiles on CAMs were recorded under dissection microscope.
The CAM assay was carried out as described previously (Sheu et al., Anticancer Res 18, 4435-4441,1998). Briefly, fertilized White Leghorn chicken eggs were purchased from Taiwan Provincial Research Institute for Animal Health (Hsin-Chu, Taiwan) and incubated at 37 °C with 60% humidity. On day 3, a square window was opened in the shell, and 2 to 3 ml of albumen was removed to allow detachment of the developing CAM. The window was sealed with a glass, and the eggs were returned to the incubator. On day 8, 50-100 µg ST104P in saline was injected onto the top of the CAM. The CAMs were examined daily until day 10-12, when the angiogenic response peaks, and photographed in ovo with a stereomicroscope equipped with Zeiss MC63 camera system (Zeiss, Oberkochen, Germany). The experiments were carried out using 10 eggs per group.

MMP-2 = assay: MMPs secretion by endothelial cells, gelatin zymography; format: cell-based; conditions: BAEC and EA.hy926, even at dose as low as 10 µg/ml, 24 h, conditioned media
Experimental: (§4) ST104P decreases the MMPs secretion by endothelial cells. The conditioned media of BAECs or EA.hy926 cells (in 24-well plate at 1x10^4 cells/well) treated with PBS or ST104P (10-500 µg/ml) for […] were collected to analyze the expression of MMPs by gelatin-PAGE zymography.
(§5) Secretion of MMPs by endothelial cells was assessed by 0.1% gelatin-SDS-PAGE zymography. Briefly, endothelial cells near 80% confluence were washed twice with serum-free media and treated with various doses of vasostatin for 24-48 h: Conditioned media were collected and assayed for protein concentration by Bradford assay. Aliquots of conditioned media were subjected to separation with 10% SDS-PAGE containing 0.1% type A gelatin (Sigma; St. Louis, MO). After electrophoresis, gel was washed twice with 2.5% Triton X-100, incubated in buffer containing 40 mM Tris-HCl, pH 8.0, 10 mM CaCl2, 0.01% sodium azide at 37 °C for 12-24 h, stained with 0.25% Coomassie Blue R-250 in 50% methanol and 10% acetic acid for 1 h, and destained with 10 % acetic acid, 20% methanol. The gelatinolytic regions by MMPs were visualized as white bands in blue background.

MMP-9 = assay: as above; format: cell-based; conditions: BAEC and EA.hy926, even at dose as low as 10 µg/ml, 24 h, conditioned media
Experimental: as §4, §5

EA.hy926 [4] = assay: Cell migration assay (Boyden chamber, bFGF as chemoattractant); format: cell-based, Human; conditions: EA.hy926, incubation 6 h, bFGF 100 ng/ml
BAEC [5] = assay: Tube formation assay in Matrigel; format: cell-based, Bovine; conditions: 20-100 µg/ml
Experimental: (§6) Fig. 3. ST104P abolished the tube formation of endothelial cells. Application of ST104P perturbed tubular network of BAEC or EA.hy9236 cells in Matrigel. Endothelial cells were applied to Matrigel-coated plate in the absence or presence of ST104P. After 8 h, the tubular structures of BAEC cells were monitored and recorded under light microscopy. The pictures were taken at 400× magnification.
(§7) Matrigel (Becton Dickinson; Bedford, MA) was diluted with cold serum-free medium to 10 mg/ml. Two hundred µl of the diluted solution were added to each well in 24-well plate and allowed to form a gel at 37 °C for 30 min. BAEC or HUVEC (1.5 x 10^5 cells per ml) were initially incubated for 15 min with various doses of ST104P in complete medium. Two hundred µl of the cell suspension (3 x 10^4 cells) were then subsequently added to each well and incubated for 6-8 h at 37 °C in 5% CO2. Under these conditions endothelial cells form delicate networks of tubes that are detectable within 2-3 h and are fully developed after 8-12 h. After incubation with ST104P, the wells were washed and the Matrigel and its endothelial tubes were fixed with 3% paraformaldehyde.

EA.hy926 cells = assay: Tube formation assay in Matrigel; format: cell-based, Human; conditions: 20-100 µg/ml
Experimental: as §6, §7

3T3 cells = assay: Cytotoxicity: cell proliferation assay (crystal violet stain) and morphology; format: cell-based
Experimental: as §1, §2, §3

BAEC [6] = assay: Cell migration assay (Boyden chamber, bFGF as chemoattractant); format: cell-based, Bovine; conditions: incubation 6 h, bFGF 100 ng/ml
Experimental: Fig. 2. ST104P inhibited the migration of endothelial cells. The effect of ST104p on migration of endothelial cells. BAEC were plated in 6-well plate (1 x 10^6 cells per well) and treated with vasostatin of indicated dose for 12 h. After trypsinization, endothelial cells were applied to top wells in Boyden chamber to initiated migration toward chemoattractant bFGF (100 ng/ml) in the bottom wells. The migrated cells on filter were stained and counted. Each point represents mean ± SEM of triplicate experiments.
Endothelial cells were treated with ST104P of indicated doses for 6-12 h, harvested by trysinization, collected by centrifugation, resuspended in DMEM media containing 0.1% BSA, and seeded in triplicate for each dose and controls in the upper compartment of the chamber (1.2 x 10^5 cells in 400 µl). The lower compartment was filled with 200 µl of the DMEM media containing 100 ng/ml bFGF (R&D, Minneapolis, MN) as the chemoattractant, or with DMEM media containing 0.1% BSA as the negative control (to evaluate random migration). […] After incubation for 2-4 h in a humidified 5% CO2 atmosphere at 37 °C, cells on the upper side of the filter were removed, and those that had migrated to the lower side were fixed in absolute ethanol, stained with 10% Giemsa solution (Merck, Germany), and counted as a mean ± SD per filter under five different high power fields.

[7] = molar equivalent given for 500 µg/ml, read-out: IC50
[8] = proliferation/viability, 48 h, crystal violet

tetrameric cyclic compound of 4,5-dihydroxynaphthalene-2,7, disulfonic acid linked by methylene bridges [ST104P]
IC50 (EA.hy926 [1]; EA.hy926, molar equivalent given for 500 µg/ml, read-out: IC50): > 350 µM
IC50 (EA.hy926 [1]; proliferation/viability, EA.hy926, 48 h, crystal violet): > 500 µg/mL
tolerability [2]: well tolerated
morphologies of cells (BAEC [3]; 10-500 µg/ml, DMEM with 10% FCS, 24 h, phase contrast microscopy): altered the morphologies of endothelial cells
IC50 (BAEC [3]; [7]): > 350 µM
IC50 (BAEC [3]; [8]): > 500 µg/mL
decrease of average tumor size versus saline-treated groups (Lewis lung carcinoma; 100 µg, subcutaneous injection for four times): ~ 40%
average tumor size (Lewis lung carcinoma; 100 µg, subcutaneous injection for four times, saline-treated 4876 ± 670 mm^3, P < 0.05): 2620 ± 320 mm^3
weight loss or adverse effects (Lewis lung carcinoma; mouse, in vivo): no evident weight loss or adverse effects
survival of tumor-bearing mice (Lewis lung carcinoma; versus vehicle-treated group, P < 0.01, Kaplan-Meier): survived significantly longer
inhibition of angiogenesis (CAM; 50 µg per CAM, 8-day old chick embryos): 50%
mortality of chick embryos (CAM; 200 µg per CAM, 9 out of 10 died versus 0 in PBS-treated group, used as index of angiogenesis inhibition): 90%
vascular network on CAMs (CAM; 50 or 200 µg in saline, 48 h, 8-day old chicken embryos): severely destroyed
secretion of MMP-2 by endothelial cells (MMP-2): potently inhibited the secretion
secretion of MMP-9 by endothelial cells (MMP-9): potently inhibited the secretion
IC50 (migration toward chemoattractant bFGF) (EA.hy926 [4]): 100 µg/mL
tube formation (vessel-like structure in Matrigel) (BAEC [5]): effectively abolished the vessel-like structure
tube formation (vessel-like structure in Matrigel) (EA.hy926 cells): effectively abolished the vessel-like structure
IC50 (3T3 cells; [7]): > 350 µM
IC50 (3T3 cells; [8]): > 500 µg/mL
IC50 (migration toward chemoattractant bFGF) (BAEC [6]): 100 µg/mL
